Test results taken from publication PMC12155096 (International Journal of Molecular Sciences, 2025).

Biological target: human CYP2C9 (Homo sapiens, UniProt P11712)
Experiment: biochemical
Conditions: not given

human CYP2C9, sequence (P11712 whole entry): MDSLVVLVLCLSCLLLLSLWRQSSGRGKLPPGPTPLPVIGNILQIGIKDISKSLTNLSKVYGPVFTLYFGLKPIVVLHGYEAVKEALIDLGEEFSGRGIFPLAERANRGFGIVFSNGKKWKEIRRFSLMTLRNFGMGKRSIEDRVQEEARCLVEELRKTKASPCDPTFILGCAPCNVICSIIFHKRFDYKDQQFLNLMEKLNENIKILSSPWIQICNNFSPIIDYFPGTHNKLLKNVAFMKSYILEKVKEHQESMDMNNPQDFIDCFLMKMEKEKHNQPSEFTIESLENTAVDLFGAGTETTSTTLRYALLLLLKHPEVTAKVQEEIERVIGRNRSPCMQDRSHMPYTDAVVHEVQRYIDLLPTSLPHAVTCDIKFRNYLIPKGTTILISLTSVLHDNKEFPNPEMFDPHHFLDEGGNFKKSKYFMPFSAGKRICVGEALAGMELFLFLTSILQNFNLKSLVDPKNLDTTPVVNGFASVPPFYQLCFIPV

| Structure (SMILES) | AC50 [µM] |
| --- | --- |
| NS(=O)(=O)c1ccc(NCc2ccccc2)cc1 [Benzylsulfamide] | 18.6 ± 5.47 |
| O=P(c1ccccc1)(c1ccccc1)c1ccccc1 [Triphenylphosphine oxide] | 6.87 ± 0.95 |

Same assay, conditions: CYP2C9 AC50 (half-maximal activity concentration)

| Structure (SMILES) | AC50 [µM] |
| --- | --- |
| COC(=O)C(C)N(C(=O)Cc1ccccc1)c1c(C)cccc1C (stereo not drawn) [Benalaxyl] | 22.6 |
| C[C@]12CCC(=O)C=C1C=C[C@@H]1[C@@H]2CC[C@@]2(C)[C@H]1CC[C@@]21CCC(=O)O1 [Canrenone] | 32.2 |
| CC(=O)O[C@]1(C(C)=O)CC[C@H]2[C@@H]3C=C(Cl)C4=CC(=O)CC[C@]4(C)[C@H]3CC[C@@]21C [Chlormadinone acetate] | 14.9 |
| CC(=O)O[C@H]1CC[C@@]2(C)C(=CC[C@@H]3[C@@H]2CC[C@]2(C)C(=O)CC[C@@H]32)C1 [Dehydroepiandrosterone acetate] | 28.4 |
| CC1(C)[C@H](C(=O)O[C@H](C#N)c2cccc(Oc3ccccc3)c2)[C@@H]1C=C(Br)Br [Deltamethrin] | 3.68 |
| CC(=O)OCC(=O)[C@H]1CC[C@H]2[C@@H]3CCC4=CC(=O)CC[C@]4(C)[C@H]3CC[C@]12C [Deoxycorticosterone acetate] | 5.67 |
| O=S(=O)(c1ccccc1)c1ccccc1 [Diphenylsulfone] | 7.39 |
| CC(=O)[C@H]1CC[C@H]2[C@@H]3C=CC4=CC(=O)CC[C@@]4(C)[C@@H]3CC[C@]12C [Dydrogesterone] | 32.4 |
| C#C[C@]1(OC(C)=O)CC[C@H]2[C@@H]3CCC4=C[C@@H](OC(C)=O)CC[C@@H]4[C@H]3CC[C@@]21C [Ethynodiol diacetate] | 13.3 |
| COC(=O)C(C)N(C(=O)c1ccco1)c1c(C)cccc1C (stereo not drawn) [Furalaxyl] | 29.5 |

Biological target: human CYP2C19 (Homo sapiens, UniProt P33261)
Experiment: biochemical
Conditions: not given

human CYP2C19, sequence (P33261 whole entry): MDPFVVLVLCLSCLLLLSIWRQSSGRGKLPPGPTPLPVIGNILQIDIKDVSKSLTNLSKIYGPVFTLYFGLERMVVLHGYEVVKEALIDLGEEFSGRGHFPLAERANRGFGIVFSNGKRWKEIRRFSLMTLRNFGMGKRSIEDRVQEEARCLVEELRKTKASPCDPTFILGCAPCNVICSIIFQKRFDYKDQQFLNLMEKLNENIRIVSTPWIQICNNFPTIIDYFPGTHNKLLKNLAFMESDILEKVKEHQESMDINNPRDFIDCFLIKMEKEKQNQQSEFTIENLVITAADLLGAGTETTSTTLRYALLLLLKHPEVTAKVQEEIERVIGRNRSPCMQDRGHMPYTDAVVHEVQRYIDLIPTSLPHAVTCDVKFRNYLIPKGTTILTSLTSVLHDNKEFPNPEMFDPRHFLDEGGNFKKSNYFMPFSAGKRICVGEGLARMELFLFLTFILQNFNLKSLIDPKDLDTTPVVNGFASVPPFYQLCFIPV

| Structure (SMILES) | AC50 [µM] |
| --- | --- |
| NS(=O)(=O)c1ccc(NCc2ccccc2)cc1 [Benzylsulfamide] | 3.82 ± 1.44 |
| O=P(c1ccccc1)(c1ccccc1)c1ccccc1 [Triphenylphosphine oxide] | 7.22 ± 1.65 |

Same assay, conditions: CYP2C19 AC50 (half-maximal activity concentration)

| Structure (SMILES) | AC50 [µM] |
| --- | --- |
| COC(=O)C(C)N(C(=O)Cc1ccccc1)c1c(C)cccc1C (stereo not drawn) [Benalaxyl] | 5.23 |
| C[C@]12CCC(=O)C=C1C=C[C@@H]1[C@@H]2CC[C@@]2(C)[C@H]1CC[C@@]21CCC(=O)O1 [Canrenone] | 1.67 |
| CC(=O)O[C@]1(C(C)=O)CC[C@H]2[C@@H]3C=C(Cl)C4=CC(=O)CC[C@]4(C)[C@H]3CC[C@@]21C [Chlormadinone acetate] | 5.67 |
| CC(=O)O[C@H]1CC[C@@]2(C)C(=CC[C@@H]3[C@@H]2CC[C@]2(C)C(=O)CC[C@@H]32)C1 [Dehydroepiandrosterone acetate] | 28.4 |
| CC1(C)[C@H](C(=O)O[C@H](C#N)c2cccc(Oc3ccccc3)c2)[C@@H]1C=C(Br)Br [Deltamethrin] | 8.8 |
| CC(=O)OCC(=O)[C@H]1CC[C@H]2[C@@H]3CCC4=CC(=O)CC[C@]4(C)[C@H]3CC[C@]12C [Deoxycorticosterone acetate] | 8.43 |
| O=S(=O)(c1ccccc1)c1ccccc1 [Diphenylsulfone] | 41.1 |
| CC(=O)[C@H]1CC[C@H]2[C@@H]3C=CC4=CC(=O)CC[C@@]4(C)[C@@H]3CC[C@]12C [Dydrogesterone] | 5.49 |
| C#C[C@]1(OC(C)=O)CC[C@H]2[C@@H]3CCC4=C[C@@H](OC(C)=O)CC[C@@H]4[C@H]3CC[C@@]21C [Ethynodiol diacetate] | 23.7 |
| COC(=O)C(C)N(C(=O)c1ccco1)c1c(C)cccc1C (stereo not drawn) [Furalaxyl] | 13.4 |

Biological target: human CYP2D6 (Homo sapiens, UniProt P10635)
Experiment: not given
Conditions: not given

human CYP2D6, sequence (P10635 whole entry): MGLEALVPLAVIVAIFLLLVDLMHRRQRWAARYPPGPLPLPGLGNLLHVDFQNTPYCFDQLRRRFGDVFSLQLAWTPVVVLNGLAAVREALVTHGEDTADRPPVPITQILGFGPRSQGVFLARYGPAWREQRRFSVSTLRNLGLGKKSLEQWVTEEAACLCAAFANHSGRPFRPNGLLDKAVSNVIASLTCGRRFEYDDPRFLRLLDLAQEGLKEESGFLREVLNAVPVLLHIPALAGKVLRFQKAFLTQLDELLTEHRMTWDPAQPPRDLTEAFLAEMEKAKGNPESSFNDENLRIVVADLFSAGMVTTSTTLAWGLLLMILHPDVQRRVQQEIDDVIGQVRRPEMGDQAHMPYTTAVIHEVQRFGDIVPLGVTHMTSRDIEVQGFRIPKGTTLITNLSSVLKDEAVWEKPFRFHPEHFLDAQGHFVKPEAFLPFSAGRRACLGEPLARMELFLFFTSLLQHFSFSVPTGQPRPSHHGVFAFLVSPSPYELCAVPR

| Structure (SMILES) | CYP2D6 AC50 (half-maximal activity concentration) |
| --- | --- |
| COC(=O)C(C)N(C(=O)Cc1ccccc1)c1c(C)cccc1C (stereo not drawn) [Benalaxyl] | Inconclusive inhibitor |
| NS(=O)(=O)c1ccc(NCc2ccccc2)cc1 [Benzylsulfamide] | Inactive |
| C[C@]12CCC(=O)C=C1C=C[C@@H]1[C@@H]2CC[C@@]2(C)[C@H]1CC[C@@]21CCC(=O)O1 [Canrenone] | Inactive |
| CC(=O)O[C@]1(C(C)=O)CC[C@H]2[C@@H]3C=C(Cl)C4=CC(=O)CC[C@]4(C)[C@H]3CC[C@@]21C [Chlormadinone acetate] | Inactive |
| CC(=O)O[C@H]1CC[C@@]2(C)C(=CC[C@@H]3[C@@H]2CC[C@]2(C)C(=O)CC[C@@H]32)C1 [Dehydroepiandrosterone acetate] | Inactive |
| CC1(C)[C@H](C(=O)O[C@H](C#N)c2cccc(Oc3ccccc3)c2)[C@@H]1C=C(Br)Br [Deltamethrin] | Inconclusive inhibitor |
| CC(=O)OCC(=O)[C@H]1CC[C@H]2[C@@H]3CCC4=CC(=O)CC[C@]4(C)[C@H]3CC[C@]12C [Deoxycorticosterone acetate] | Inconclusive inhibitor |
| O=S(=O)(c1ccccc1)c1ccccc1 [Diphenylsulfone] | Inactive |
| CC(=O)[C@H]1CC[C@H]2[C@@H]3C=CC4=CC(=O)CC[C@@]4(C)[C@@H]3CC[C@]12C [Dydrogesterone] | Inconclusive inhibitor |
| C#C[C@]1(OC(C)=O)CC[C@H]2[C@@H]3CCC4=C[C@@H](OC(C)=O)CC[C@@H]4[C@H]3CC[C@@]21C [Ethynodiol diacetate] | Inactive |
| COC(=O)C(C)N(C(=O)c1ccco1)c1c(C)cccc1C (stereo not drawn) [Furalaxyl] | Inactive |
| O=P(c1ccccc1)(c1ccccc1)c1ccccc1 [Triphenylphosphine oxide] | Inactive |

Biological target: T1, human CYP1A2 (Homo sapiens, UniProt P05177)
T1 sequence (P05177 1-516): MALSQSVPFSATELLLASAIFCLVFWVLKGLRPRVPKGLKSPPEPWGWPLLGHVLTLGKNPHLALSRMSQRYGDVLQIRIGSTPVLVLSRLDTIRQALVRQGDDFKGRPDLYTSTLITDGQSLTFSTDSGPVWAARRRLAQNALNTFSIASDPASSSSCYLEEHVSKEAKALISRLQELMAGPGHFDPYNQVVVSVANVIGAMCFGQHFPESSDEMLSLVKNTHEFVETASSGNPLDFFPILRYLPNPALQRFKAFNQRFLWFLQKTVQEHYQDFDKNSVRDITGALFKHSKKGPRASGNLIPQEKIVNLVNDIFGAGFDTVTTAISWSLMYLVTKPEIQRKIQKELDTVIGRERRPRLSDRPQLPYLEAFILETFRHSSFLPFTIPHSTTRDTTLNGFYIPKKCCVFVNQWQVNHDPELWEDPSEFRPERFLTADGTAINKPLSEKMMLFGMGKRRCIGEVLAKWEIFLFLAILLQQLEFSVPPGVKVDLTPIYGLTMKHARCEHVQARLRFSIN
Experiment: not given
Conditions: not given

| Structure (SMILES) | CYP1A2 AC50 (half-maximal activity concentration) |
| --- | --- |
| COC(=O)C(C)N(C(=O)Cc1ccccc1)c1c(C)cccc1C (stereo not drawn) [Benalaxyl] | Inactive |
| NS(=O)(=O)c1ccc(NCc2ccccc2)cc1 [Benzylsulfamide] | Inactive |
| C[C@]12CCC(=O)C=C1C=C[C@@H]1[C@@H]2CC[C@@]2(C)[C@H]1CC[C@@]21CCC(=O)O1 [Canrenone] | Inconclusive inhibitor |
| CC(=O)O[C@]1(C(C)=O)CC[C@H]2[C@@H]3C=C(Cl)C4=CC(=O)CC[C@]4(C)[C@H]3CC[C@@]21C [Chlormadinone acetate] | Inactive |
| CC(=O)O[C@H]1CC[C@@]2(C)C(=CC[C@@H]3[C@@H]2CC[C@]2(C)C(=O)CC[C@@H]32)C1 [Dehydroepiandrosterone acetate] | Inconclusive inhibitor |
| CC1(C)[C@H](C(=O)O[C@H](C#N)c2cccc(Oc3ccccc3)c2)[C@@H]1C=C(Br)Br [Deltamethrin] | Inconclusive inhibitor |
| CC(=O)OCC(=O)[C@H]1CC[C@H]2[C@@H]3CCC4=CC(=O)CC[C@]4(C)[C@H]3CC[C@]12C [Deoxycorticosterone acetate] | Inactive |
| O=S(=O)(c1ccccc1)c1ccccc1 [Diphenylsulfone] | Inactive |
| CC(=O)[C@H]1CC[C@H]2[C@@H]3C=CC4=CC(=O)CC[C@@]4(C)[C@@H]3CC[C@]12C [Dydrogesterone] | Inactive |
| C#C[C@]1(OC(C)=O)CC[C@H]2[C@@H]3CCC4=C[C@@H](OC(C)=O)CC[C@@H]4[C@H]3CC[C@@]21C [Ethynodiol diacetate] | Inactive |
| COC(=O)C(C)N(C(=O)c1ccco1)c1c(C)cccc1C (stereo not drawn) [Furalaxyl] | Inconclusive inhibitor |

Same assay, conditions: mean ± standard deviation from three experiments; words = activity call

| Structure (SMILES) | CYP1A2 AC50 (half-maximal activity concentration) |
| --- | --- |
| O=P(c1ccccc1)(c1ccccc1)c1ccccc1 [Triphenylphosphine oxide] | Inconclusive inhibitor |

Biological target: CYP3A4 (Homo sapiens, UniProt P08684)
Experiment: biochemical
Conditions: not given

CYP3A4, sequence (P08684 whole entry): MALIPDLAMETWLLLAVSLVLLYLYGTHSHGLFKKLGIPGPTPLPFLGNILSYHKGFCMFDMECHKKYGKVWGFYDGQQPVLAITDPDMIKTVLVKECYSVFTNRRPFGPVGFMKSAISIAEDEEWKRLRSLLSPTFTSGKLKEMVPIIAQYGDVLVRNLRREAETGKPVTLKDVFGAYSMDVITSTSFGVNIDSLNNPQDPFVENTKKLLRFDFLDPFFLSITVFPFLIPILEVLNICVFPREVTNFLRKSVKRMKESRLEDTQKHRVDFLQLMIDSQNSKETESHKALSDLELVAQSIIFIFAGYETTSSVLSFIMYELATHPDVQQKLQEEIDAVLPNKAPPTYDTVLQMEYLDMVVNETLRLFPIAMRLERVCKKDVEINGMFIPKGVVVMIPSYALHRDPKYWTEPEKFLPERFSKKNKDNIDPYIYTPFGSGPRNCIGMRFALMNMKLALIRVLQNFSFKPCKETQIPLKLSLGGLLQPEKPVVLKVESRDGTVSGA

| Structure (SMILES) | AC50 [µM] |
| --- | --- |
| NS(=O)(=O)c1ccc(NCc2ccccc2)cc1 [Benzylsulfamide] | 7.8 ± 0.9 |
| O=P(c1ccccc1)(c1ccccc1)c1ccccc1 [Triphenylphosphine oxide] | 37 ± 2.51 |

Same assay, conditions: CYP3A4 AC50 (half-maximal activity concentration)

| Structure (SMILES) | AC50 [µM] |
| --- | --- |
| COC(=O)C(C)N(C(=O)Cc1ccccc1)c1c(C)cccc1C (stereo not drawn) [Benalaxyl] | 4.54 |
| C[C@]12CCC(=O)C=C1C=C[C@@H]1[C@@H]2CC[C@@]2(C)[C@H]1CC[C@@]21CCC(=O)O1 [Canrenone] | 3.48 |
| CC(=O)O[C@]1(C(C)=O)CC[C@H]2[C@@H]3C=C(Cl)C4=CC(=O)CC[C@]4(C)[C@H]3CC[C@@]21C [Chlormadinone acetate] | 2.05 |
| CC(=O)O[C@H]1CC[C@@]2(C)C(=CC[C@@H]3[C@@H]2CC[C@]2(C)C(=O)CC[C@@H]32)C1 [Dehydroepiandrosterone acetate] | 6.03 |
| CC1(C)[C@H](C(=O)O[C@H](C#N)c2cccc(Oc3ccccc3)c2)[C@@H]1C=C(Br)Br [Deltamethrin] | 9.13 |
| CC(=O)OCC(=O)[C@H]1CC[C@H]2[C@@H]3CCC4=CC(=O)CC[C@]4(C)[C@H]3CC[C@]12C [Deoxycorticosterone acetate] | 4.07 |
| O=S(=O)(c1ccccc1)c1ccccc1 [Diphenylsulfone] | 28.4 |
| CC(=O)[C@H]1CC[C@H]2[C@@H]3C=CC4=CC(=O)CC[C@@]4(C)[C@@H]3CC[C@]12C [Dydrogesterone] | 4.36 |
| C#C[C@]1(OC(C)=O)CC[C@H]2[C@@H]3CCC4=C[C@@H](OC(C)=O)CC[C@@H]4[C@H]3CC[C@@]21C [Ethynodiol diacetate] | 3.91 |
| COC(=O)C(C)N(C(=O)c1ccco1)c1c(C)cccc1C (stereo not drawn) [Furalaxyl] | 14.7 |
